{"source": "PubChem BioAssay (NCI)", "system": "P388 leukemia", "experiment": "NCI tumour cell line growth inhibition, 48 h", "note": "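Values below derive from 48-hour exposures of cells grown in 96-well plates, with endpoints linearly interpolated between the two concentrations bracketing the appropriate inhibition level. TGI: concentration producing complete growth inhibition.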"}
{"compound": "CC[C@@]1(O)C(=O)OCc2c1cc1n(c2=O)Cc2cc3c(N)cccc3nc2-1", "values": [{"measurement": "TGI", "value": 0.3, "unit": "µM"}]}
